The text below walks through data of ChEMBL document CHEMBL1144487 (Bioorg Med Chem, 2007).

A short description of series [1]: Cytotoxicity against rat NRK 52E cells after 5 days. It is filed as cell-based. The following applies: read-out: LC50.
Series [2] is described as follows: Cytotoxicity against rat K-ras transformed NRK K/1 cells after 5 days. The settings on record: NRK K/1, 120 h, read-out: LC50 (the source's name). It is filed as cell-based.
A short description of series [3]: Cytotoxicity against rat H-ras transformed NRK H/1.2 cells after 5 days. The series is classed as cell-based. The settings on record: NRK H/1.2, 120 h, read-out: LC50 (the source's name).
Series [4] is described as follows: Cytotoxicity against rat N-ras transformed NRK N/4.2 cells after 5 days. It is filed as cell-based. The following applies: NRK N/4.2, 120 h, read-out: LC50 (the source's name).
Series [5] is described as follows: Cytotoxicity against mouse 3LL cells after 5 days. The series is classed as cell-based. The settings on record: 120 h, read-out: LC50 (the source's name).
The nature of series [6]: Differential index, LC50 for rat NRK 52E cells to LC50 for rat K-ras transformed NRK K/1 cells. It is filed as ADME, cell-based. The settings on record: NRK 52E cells versus K-ras transformed NRK K/1 cells.
Series [7] is described as follows: Differential index, LC50 for rat NRK 52E cells to LC50 for rat H-ras transformed NRK H/1.2 cells. It is filed as ADME, cell-based. The following applies: NRK 52E cells versus H-ras transformed NRK H/1.2 cells.
Series [8] can be described thus: Differential index, LC50 for rat NRK 52E cells to LC50 for rat N-ras transformed NRK N/4.2 cells. The following applies: NRK 52E cells versus N-ras transformed NRK N/4.2 cells. The series is classed as ADME, cell-based.
Series [9] is described as follows: Differential index, LC50 for rat NRK 52E cells to LC50 for mouse 3LL cells. The series is classed as ADME, cell-based. The following applies: NRK 52E cells versus 3LL cells.

Take `CCCC(=O)NC1=CC(=O)c2ccc(-c3nc(C(=O)OC)c(C)c4c3[nH]c3ccccc34)nc2C1=O`: the CC50 at 120 h in [1] worked out at 320 nM. Further, the CC50 in [2] turned out to be 330 nM; in series [3], 400 nM; in [4], 420 nM; in [5], 820 nM. Besides, the selectivity ratio in series [6] stood at 1; in [7] it was 0.8; in [8], 0.8; in [9] it was 0.4.
Consider `COC(=O)c1cc2c([nH]c3ccccc32)c(-c2ccc3c(n2)C(=O)C(NC(C)=O)=CC3=O)n1`, for which the CC50 at 120 h in series [1] was 500 nM. The CC50 in [2] was 110 nM; in series [3] it was 510 nM; in series [4] it was 520 nM; in series [5], 840 nM. Besides, the selectivity ratio in series [6] amounted to 4.5; in series [7], 1; in series [8], 1; in [9] it was 0.6.
With `CC(=O)NC1=CC(=O)c2ccc(C(=O)O)nc2C1=O`, in series [1], the CC50 at 120 h was over 33000 nM. Moreover, the CC50 in series [2] was over 33000 nM; in series [3], over 31000 nM; in [5], 26000 nM.
In the case of `Cc1ccc2c(n1)C(=O)C(NC(=O)C(C)C)=CC2=O`, the CC50 at 120 h in series [1] was found to be 1500 nM. For the same compound, the CC50 was 7500 nM in series [2], 1450 nM in series [3], 1150 nM in [4] and 710 nM in series [5].
With `Cc1ccc2c(n1)C(=O)C(NCCCCO)=CC2=O`, in series [1], the CC50 at 120 h was found to be 10500 nM. Also, the CC50 in [2] came out at 13500 nM; in series [3], 10500 nM; in [5], 3800 nM.
As to `CCCCCCCCOC(=O)c1cc2c([nH]c3ccccc32)c(-c2ccc3c(n2)C(=O)C(NC(=O)CCl)=CC3=O)n1`, in series [1], the CC50 at 120 h was over 33000 nM. In addition, the CC50 in [2] is 15000 nM; in series [3] it was over 33000 nM; in series [4], over 33000 nM; in series [5], over 33000 nM. For the same compound, the selectivity ratio in [6] is over 2.2; in series [8], 1.
In the case of `CC(=O)NC1=CC(=O)c2nc(C)ccc2C1=O`, the CC50 at 120 h in series [1] came out at 21500 nM. For the same compound, the CC50 was over 33000 nM in series [2], 20000 nM in series [3] and over 33000 nM in series [5].
For the compound `CC(C)C(=O)NC1=CC(=O)c2ccc(C=O)nc2C1=O`, in series [1], the CC50 at 120 h is over 3300 nM. For the same compound, the CC50 in [2] is 2150 nM; in [3] it was over 3300 nM; in series [4], over 3300 nM; in series [5] it was 1000 nM.
With `CC(=O)NC1=CC(=O)c2ccc(C=O)nc2C1=O`, the CC50 at 120 h in series [1] turned out to be 1300 nM. For the same compound, the figures for the CC50 in [2], in series [3] and in series [5] were 2600 nM, 2500 nM and 1200 nM, respectively.
Consider `O=Cc1ccc2c(n1)C(=O)C(NC(=O)CCl)=CC2=O`, for which the CC50 at 120 h in [1] stood at 3600 nM. Besides, the CC50 in series [2] is 5800 nM; in series [3] it was 3400 nM; in series [4], 3200 nM; in series [5] it was 2100 nM.
Turning to `Cc1ccc2c(n1)C(=O)C(NC(=O)CCl)=CC2=O`, the CC50 at 120 h in series [1] amounted to 3200 nM. For the same compound, the CC50 in series [2] was found to be 6600 nM; in series [3] it was 2800 nM; in series [4], 3400 nM; in [5] it was 2300 nM.
On to `NC1=CC(=O)c2ccc(C=O)nc2C1=O`, for which, in series [1], the CC50 at 120 h stood at 2400 nM. Moreover, the CC50 in series [2] stood at 4300 nM; in [3] it was 2200 nM; in series [5] it was 2300 nM.
On to `Cc1ccc2c(n1)C(=O)C(N)=CC2=O`, for which the CC50 at 120 h in series [1] stood at 800 nM. The CC50 in series [2] worked out at 1300 nM; in series [3] it was 600 nM; in series [5], 800 nM.
As for `CC(=O)NC1=CC(=O)c2cc(C)cnc2C1=O`, the CC50 at 120 h in series [1] was 1300 nM. In addition, the CC50 in [2] stood at 1800 nM; in series [3], 1100 nM; in series [5], 1000 nM.
The like results for `COC1=CC(=O)c2ccc(C)nc2C1=O` were, in that order, 6900 nM, 11800 nM, 4200 nM and 7400 nM.
